Results published in ChEMBL document CHEMBL3627598, “Synthesis of novel compounds containing morpholine and 5(4H)-oxazolone rings as potent tyrosinase inhibitors” (Bioorg Med Chem, 2015).

Legend:
[1] = target: T1, Tyrosinase (Agaricus bisporus, UniProt O42713); test: Inhibition of mushroom tyrosinase using L-DOPA as substrate assessed as formation of L-DOPA chrome preincubated for 10 mins followed by addition of substrate measured over 10 mins by […]
T1 sequence (O42713 whole entry): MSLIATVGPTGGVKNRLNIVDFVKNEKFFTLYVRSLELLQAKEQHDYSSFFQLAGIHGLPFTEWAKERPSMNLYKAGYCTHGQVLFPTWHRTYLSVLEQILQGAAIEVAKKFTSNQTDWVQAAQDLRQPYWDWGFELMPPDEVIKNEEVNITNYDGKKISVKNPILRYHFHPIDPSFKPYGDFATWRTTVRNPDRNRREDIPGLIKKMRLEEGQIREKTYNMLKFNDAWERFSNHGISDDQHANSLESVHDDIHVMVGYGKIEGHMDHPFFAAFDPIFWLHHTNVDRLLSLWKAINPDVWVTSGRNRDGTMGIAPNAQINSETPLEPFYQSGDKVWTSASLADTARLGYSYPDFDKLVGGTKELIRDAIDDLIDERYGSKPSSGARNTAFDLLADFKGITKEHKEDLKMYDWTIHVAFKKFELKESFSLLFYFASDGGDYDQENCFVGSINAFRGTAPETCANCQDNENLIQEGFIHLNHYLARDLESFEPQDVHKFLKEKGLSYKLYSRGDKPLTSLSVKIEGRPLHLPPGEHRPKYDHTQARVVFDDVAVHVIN

[2] = Cytotoxicity against mouse B16F10 cells assessed as cell viability at 20 ug/ml incubated for 72 hrs by MTT assay; type: cell-based, B16-F10; details: read-out: Activity
[3] = target: T2, Tyrosinase (Mus musculus) (UniProt P11344); test: Inhibition of tyrosinase in mouse B16F10 cells assessed as reduction of melanin production at 20 ug/ml incubated for 72 hrs; type: cell-based; details: B16-F10
T2 sequence (whole entry): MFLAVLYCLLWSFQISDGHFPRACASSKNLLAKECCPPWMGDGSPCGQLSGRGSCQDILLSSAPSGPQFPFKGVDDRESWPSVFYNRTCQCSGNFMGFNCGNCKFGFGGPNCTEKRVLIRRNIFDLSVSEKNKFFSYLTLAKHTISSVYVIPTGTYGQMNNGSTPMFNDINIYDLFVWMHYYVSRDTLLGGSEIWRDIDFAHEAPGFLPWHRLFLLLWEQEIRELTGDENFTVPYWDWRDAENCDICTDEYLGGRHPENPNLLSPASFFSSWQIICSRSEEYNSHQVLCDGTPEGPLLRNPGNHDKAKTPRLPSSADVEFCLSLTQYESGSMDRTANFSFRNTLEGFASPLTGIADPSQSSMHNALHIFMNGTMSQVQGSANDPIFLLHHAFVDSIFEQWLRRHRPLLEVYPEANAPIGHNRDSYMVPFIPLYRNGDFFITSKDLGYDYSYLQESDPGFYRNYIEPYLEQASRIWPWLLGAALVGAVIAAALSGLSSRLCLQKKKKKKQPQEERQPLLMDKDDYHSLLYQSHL

SMILES | IC50 [1] [µM] | viability at 72 h, 20 ug/ml [2] [%] | inhibition [3] [%]
O=C1OC(c2ccc(/N=N/c3ccc(N4CCOCC4)cc3)cc2)=N/C1=C/c1ccc(F)cc1Cl | 16 | 60.7 | 32.4
O=C1OC(c2ccc(/N=N/c3ccc(N4CCOCC4)cc3)cc2)=N/C1=C/c1ccccc1[N+](=O)[O-] | 20.3 | 58.1 | 30.7
O=C1OC(c2ccc(/N=N/c3ccc(N4CCOCC4)cc3)cc2)=N/C1=C/c1ccc(Cl)cc1 | 18.9 | 61.9 | 34.4
O=C1OC(c2ccc(/N=N/c3ccc(N4CCOCC4)cc3)cc2)=N/C1=C/c1ccccc1 | 17.2 | 62.9 | 40.1
O=C1OC(c2ccc(/N=N/c3ccc(N4CCOCC4)cc3)cc2)=N/C1=C/c1cccs1 | 13.7 | 56.7 | 31.2
O=C1OC(c2ccc(/N=N/c3ccc(N4CCOCC4)cc3)cc2)=N/C1=C/c1ccc(F)cc1 | 15.8 | 57.2 | 38.8
